Results on one substance are retold here after patent publication US9683253B2, “Method and device for identifying cells” (IMEC, priority 2013, dated 2017).

For assay [1], the system named is PBMC. Type of assay: cell-based.
For assay [2], the system named is MCF7 cells. Type of assay: cell-based.

Turning to SLO, the “recovered Fc versus native Fc” value in assay [1] is “drops to a lower value than the native Fc”. Besides, in assay [2], the “dose dependence of change in Fc” value is given as “the higher the dose, the bigger the change in the Fc” and the “recovered Fc versus native Fc” value is “increases higher than the native Fc”.
